The results in this text go back to PubChem BioAssay AID179 (DTP/NCI, 2004).

Values joined by “and” are separate entries in the source; they are usually repeats but may differ in a detail not shown here. Identical values can stand only once. Active and inactive are the calls of the source.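 The calls were made as follows: active = compounds giving half or more protection of infected cells from virus-caused growth loss, again on retest; inactive = the rest.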 Where a SMILES comes first, the peptide text is derived from it. The star is where a group is joined. Fmoc = O=C(OCC1c2ccccc2-c2ccccc21)*; OBn = c1ccc(CO*)cc1; tBu = CC(C)(C)* Where only a bound is given, the exact number is not on record here.

This experiment deals with CEM cells HIV-1 protection, formazan growth assay. Description: NCI AIDS Antiviral Assay. The settings on record: for IC50: measured here: growth of uninfected CEM cells. The essentials: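 Soluble formazan readout of cell growth; CEM cells ± HIV-1; 5 drug concs. ≥50% protection → retest; ≥50% again = moderately active; reproducible 100% = confirmed active.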

By EC50 is commonly meant the concentration that produces a half-maximal response. Usually IC50 stands for the concentration at which inhibition is half-maximal. Read a low IC50 as higher potency. For the molecule `[O-]/N=[N+](/[O-])C1CCCCC1=[N+]1CCOCC1` (configuration not stated), the EC50 is greater than 200 µM and the IC50 is 32.4 µM.

Take `CN(C)CCC[N+]1=Nc2cccc3cccc(c23)N1`: the outcome was inactive.

For `O=C(CC(=O)N1N=C(c2ccccc2)C(N=Nc2ccc(Cl)cc2)C1=O)Nc1ccccc1Cl` (configuration not stated), the EC50 was greater than 38 µM and the IC50 was greater than 38 µM.

For the molecule `Cc1ccc(NC(=O)C(=O)C2NC(=S)NC2=O)c([N+](=O)[O-])c1` (configuration not stated), the EC50 was greater than 295 µM and the IC50 is 129 µM.

As to `Nc1nc2c(N)cc(C(F)(F)F)cc2nc1-c1ccccc1`, the EC50 was greater than 17 µM and the IC50 is greater than 17 µM.

Regarding `S=C=Nc1ccc(CSc2nc3ccccc3[nH]2)cc1`, the result was inactive.

For the molecule `CCOC(=O)C[C@](C)(O)C1CCCN1` (some centres not stated), the outcome was inactive.

Consider `O=S(=O)(OI(O)CC(F)(F)F)C(F)(F)F`, for which the EC50 is greater than 200 µM and the IC50 is greater than 200 µM.

For `CC1(O)CSc2c(C=O)c3ccccc3n21` (configuration not stated), the EC50 was greater than 1070 µM and the IC50 came to 67.6 µM.

On to `CN1Cc2cc(O)c(O)cc2C(O)C1` (configuration not stated), for which the EC50 was greater than 200 µM and the IC50 worked out at 102 µM.

On to `CCN1C(=O)c2ccccc2C1(O)c1ccc(Cl)cc1` (configuration not stated), for which the EC50 is greater than 200 µM and the IC50 is 151 µM.

Consider `O=C(O)CCc1ccc(NC(=O)CN(CCO)CCO)cc1`, for which the EC50 was greater than 200 µM and the IC50 was greater than 200 µM.

Consider `O=S1(=O)CC2(N3CCOCC3)CCCC21` (configuration not stated), for which the EC50 is greater than 1070 µM and the IC50 came out at 229 µM.

In the case of `COc1ccc(Cl)cc1NC(=O)c1ccco1`, the EC50 was greater than 200 µM and the IC50 was greater than 200 µM.

As to `CC1=Nc2nc(=N)nc3cccc(n23)N1`, the EC50 was greater than 200 µM and the concentration for half-maximal inhibition (IC50) worked out at 170 µM.

As to `COc1ccc2nc3ccc(OC)cc3c(SCC3CO3)c2c1` (configuration not stated), the EC50 is greater than 200 µM and the IC50 is 3.63 µM.

Take `CC(C)C(F)(C(N)=O)C(=O)O` (configuration not stated): the EC50 is greater than 200 µM and the IC50 was greater than 200 µM.

Turning to `CC(OC(C)(C)C)C(NC(=O)OCC1c2ccccc2-c2ccccc21)C(=O)NC(Cc1ccccc1)C(=O)OCc1ccccc1` (configuration not stated) (Fmoc-Thr(tBu)-Phe-OBn; configuration not given here), the EC50 is greater than 200 µM and the IC50 is greater than 200 µM.

As to `O=[N+]1[C@H](c2ccccc2)[C@H](c2ccccc2)N1[O-]`, the EC50 was greater than 200 µM and the IC50 came out at 11.5 µM.

As to `C/C=C(\C1CC(=O)N2CCc3c([nH]c4ccccc34)C2C1)[Si](C)(C)C` (configuration not stated), the EC50 is greater than 14.8 µM and the IC50 was greater than 14.8 µM.

Consider `O=C(CCc1ccc(O)c(O)c1)NCCc1cc(O)c(O)c(O)c1`, for which the EC50 was greater than 200 µM and the IC50 was 5.01 µM.

For `C/C(O)=C(/C=N/C(N)=S)C(N)=O`, the outcome was inactive.

`Cc1cc(N(C)C)ccc1N=Nc1ccc2ncccc2c1`: the outcome was inactive.

In the case of `SCCN1CCCN(CCS)CCC1`, the EC50 was greater than 200 µM and the IC50 turned out to be 135 µM.

As to `Cc1ccc2c(N(CCO)CCO)cc(-c3ccccc3)nc2n1`, the EC50 was greater than 200 µM and the IC50 is greater than 200 µM.

Consider `CC1(C)Oc2ccccc2N2O[C@@H]3C(=O)N(c4ccccc4)C(=O)[C@@H]3C21c1ccccc1` (some centres not stated), for which the result was inactive.

In the case of `CCCCCCCC(=O)c1ccc(O)c(-c2nc3ccc(C(F)(F)F)cc3[nH]2)c1`, the EC50 is greater than 24.5 µM and the IC50 came to 2.09 µM.

Take `Cc1noc(NC2=CC(=O)C(=O)c3ccccc32)c1C`: the EC50 was greater than 200 µM and the half-inhibitory concentration (IC50) worked out at 3.98 µM.

On to `Nc1n[nH]c(N)n1`, for which the EC50 was greater than 2510 µM; the IC50 is > 200 µM and 282 µM.

`c1ccc(P2c3ccccc3Nc3ccccc32)cc1`: the EC50 is greater than 200 µM and the IC50 was 61.7 µM.

For the molecule `N#CC1CCCC2SC(F)(F)C(F)(F)C12` (configuration not stated), the EC50 is greater than 200 µM and the IC50 was found to be 33.1 µM.

As for `N/C(=N\N=C\c1ccc2c(c1)OCO2)N/N=C\c1ccc2c(c1)OCO2`, the EC50 was greater than 200 µM.
